From article PMC2615555 (Virology, 2008)

Tests used:
[1] = target: T1, I-E^d (Mus musculus, UniProt P01904+P01915); assay: biochemical; format: binding, BALB/c mouse
T1 sequence (P01904 26-255): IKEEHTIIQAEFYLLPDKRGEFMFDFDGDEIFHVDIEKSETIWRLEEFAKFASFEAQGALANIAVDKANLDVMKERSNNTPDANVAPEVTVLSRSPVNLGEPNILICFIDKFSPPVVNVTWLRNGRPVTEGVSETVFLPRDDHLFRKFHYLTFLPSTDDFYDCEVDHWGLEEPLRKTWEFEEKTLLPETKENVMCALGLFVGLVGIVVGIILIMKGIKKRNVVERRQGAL
T1 sequence (P01915 27-264 limits assumed): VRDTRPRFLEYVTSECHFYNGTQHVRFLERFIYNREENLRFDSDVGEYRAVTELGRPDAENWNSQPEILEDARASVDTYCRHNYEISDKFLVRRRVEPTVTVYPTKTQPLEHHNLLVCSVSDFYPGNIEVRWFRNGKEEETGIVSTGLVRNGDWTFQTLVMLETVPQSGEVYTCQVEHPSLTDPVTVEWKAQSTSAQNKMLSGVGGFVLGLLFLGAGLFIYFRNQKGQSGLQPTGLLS

[2] = target: T2, I-A^d (Mus musculus, UniProt P01921+P04228); assay: biochemical; format: binding, BALB/c mouse
T2 sequence (P04228 24-256): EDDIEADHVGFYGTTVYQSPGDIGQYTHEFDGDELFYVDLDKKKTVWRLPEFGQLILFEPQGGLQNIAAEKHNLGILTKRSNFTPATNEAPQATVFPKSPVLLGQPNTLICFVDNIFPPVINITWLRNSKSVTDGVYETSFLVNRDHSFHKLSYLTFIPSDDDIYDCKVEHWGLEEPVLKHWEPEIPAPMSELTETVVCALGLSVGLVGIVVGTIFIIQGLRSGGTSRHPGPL
T2 sequence (P01921 28-265): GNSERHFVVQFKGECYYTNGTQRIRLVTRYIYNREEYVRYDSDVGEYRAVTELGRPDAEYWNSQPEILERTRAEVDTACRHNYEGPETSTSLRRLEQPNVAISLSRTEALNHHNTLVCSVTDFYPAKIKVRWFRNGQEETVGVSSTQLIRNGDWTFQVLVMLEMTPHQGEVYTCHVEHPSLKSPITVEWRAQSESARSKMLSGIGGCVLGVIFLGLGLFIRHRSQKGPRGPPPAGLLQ

[3] = Binding Assay IC50, I-A^d (membrane 15mers)
[4] = Binding Assay IC50, I-A^d (envelope 15mers)

SMILES | IC50 [1] | IC50 [2, 3] | further results
CC[C@H](C)[C@H](NC(=O)[C@@H](NC(=O)[C@H](CC(C)C)NC(=O)[C@H](C)NC(=O)[C@@H](NC(=O)[C@@H](NC(=O)[C@H](C)NC(=O)[C@H](Cc1ccccc1)NC(=O)[C@@H](N)Cc1ccccc1)C(C)C)[C@@H](C)O)[C@@H](C)O)C(=O)N[C@@H](C)C(=O)N[C@@H](Cc1ccc(O)cc1)C(=O)N[C@@H](CC(C)C)C(=O)N[C@H](C(=O)NCC(=O)N[C@@H](CO)C(=O)O)C(C)C [M41–55] | > 45 µM | 6.21 µM | 
CSCC[C@H](NC(=O)[C@H](Cc1c[nH]c2ccccc12)NC(=O)[C@H](CCCCN)NC(=O)[C@H](CCC(=O)O)NC(=O)[C@H](CCC(N)=O)NC(=O)[C@H](CCCNC(=N)N)NC(=O)[C@@H](NC(=O)[C@H](CCCCN)NC(=O)[C@H](CC(C)C)NC(=O)CNC(=O)[C@H](Cc1c[nH]cn1)NC(=O)[C@@H](N)CC(N)=O)[C@@H](C)O)C(=O)N[C@H](C(=O)NCC(=O)N[C@@H](CCCNC(=N)N)C(=O)O)[C@@H](C)O [M9–23] | > 45 µM | 40.9 µM | 
CC[C@H](C)[C@H](NC(=O)[C@H](C)N)C(=O)N[C@@H](CC(=O)O)C(=O)N[C@@H](CC(C)C)C(=O)N1CCC[C@H]1C(=O)N[C@H](C(=O)N[C@@H](Cc1c[nH]cn1)C(=O)N[C@@H](CCC(=O)O)C(=O)N[C@@H](CC(N)=O)C(=O)N[C@@H](Cc1c[nH]cn1)C(=O)NCC(=O)N[C@@H](CC(C)C)C(=O)N[C@@H](CCCCN)C(=O)N[C@H](C(=O)N[C@@H](CCCNC(=N)N)C(=O)O)[C@@H](C)O)[C@@H](C)O [M1–15] | 36.6 µM | > 45 µM | 
CC[C@H](C)[C@H](N)C(=O)N[C@@H](C)C(=O)N[C@@H](Cc1ccc(O)cc1)C(=O)N[C@@H](CC(C)C)C(=O)N[C@H](C(=O)NCC(=O)N[C@@H](CO)C(=O)N[C@@H](CC(N)=O)C(=O)N[C@@H](CCSC)C(=O)N[C@H](C(=O)N[C@@H](CCC(N)=O)C(=O)N[C@@H](CCCNC(=N)N)C(=O)N[C@H](C(=O)N[C@H](C(=O)N[C@H](C(=O)O)[C@@H](C)CC)C(C)C)C(C)C)[C@@H](C)O)C(C)C [M49–63] | 29.7 µM | 0.383 µM | 
CC[C@H](C)[C@H](NC(=O)[C@@H](NC(=O)[C@H](C)NC(=O)[C@H](C)NC(=O)[C@H](Cc1c[nH]cn1)NC(=O)[C@@H]1CCCN1C(=O)[C@@H]1CCCN1C(=O)[C@H](CCC(=O)O)NC(=O)[C@H](Cc1ccccc1)NC(=O)[C@@H](N)CCC(=O)O)[C@@H](C)O)C(=O)N[C@@H](CCCNC(=N)N)C(=O)N[C@H](C(=O)N[C@@H](CC(C)C)C(=O)N[C@@H](C)C(=O)N[C@@H](CC(C)C)C(=O)O)C(C)C [E233–247] |  |  | Binding Assay IC50, I-E^d (envelope 15mers) [1]: high affinity; IC50 [2, 4]: < 1 µM
CC[C@H](C)[C@H](NC(=O)[C@H](CCCCN)NC(=O)[C@H](CCC(N)=O)NC(=O)[C@H](CC(C)C)NC(=O)[C@H](CCC(N)=O)NC(=O)[C@H](CCCNC(=N)N)NC(=O)[C@H](CCC(=O)O)NC(=O)CN)C(=O)N[C@@H](CCC(=O)O)C(=O)N[C@@H](CCCNC(=N)N)C(=O)N[C@@H](Cc1c[nH]c2ccccc12)C(=O)N[C@@H](Cc1ccccc1)C(=O)N[C@H](C(=O)N[C@@H](CCCNC(=N)N)C(=O)N[C@@H](CC(N)=O)C(=O)O)C(C)C [M25–39] | 13.2 µM | > 45 µM | 
CC[C@H](C)[C@H](NC(=O)[C@H](CCCCN)NC(=O)[C@H](CCC(N)=O)NC(=O)[C@H](CC(C)C)NC(=O)[C@H](CCC(N)=O)NC(=O)[C@H](CCCNC(=N)N)NC(=O)[C@H](CCC(=O)O)NC(=O)CNC(=O)[C@H](CCSC)NC(=O)[C@H](CCCNC(=N)N)NC(=O)CNC(=O)[C@@H](N)[C@@H](C)O)C(=O)N[C@@H](CCC(=O)O)C(=O)N[C@@H](CCCNC(=N)N)C(=O)N[C@@H](Cc1c[nH]c2ccccc12)C(=O)O [M21–35] | > 45 µM | 42.5 µM | 
CC(C)C[C@H](NC(=O)[C@H](C)NC(=O)[C@@H](NC(=O)[C@@H](NC(=O)[C@H](C)NC(=O)[C@H](Cc1ccccc1)NC(=O)[C@H](Cc1ccccc1)NC(=O)[C@@H]1CCCN1C(=O)[C@H](CC(N)=O)NC(=O)[C@H](CCCNC(=N)N)NC(=O)[C@@H](NC(=O)[C@H](Cc1ccccc1)NC(=O)[C@H](Cc1c[nH]c2ccccc12)NC(=O)[C@H](CCCNC(=N)N)NC(=O)[C@@H](N)CCC(=O)O)C(C)C)C(C)C)[C@@H](C)O)C(=O)O [M33–47] | 2.28 µM | 0.0073 µM | 
CC[C@H](C)[C@H](NC(=O)CN)C(=O)N[C@@H](CC(N)=O)C(=O)N[C@H](C(=O)N[C@@H](CCCNC(=N)N)C(=O)N[C@@H](CC(N)=O)C(=O)N[C@@H](CCSC)C(=O)N[C@H](C(=O)N[C@@H](CCSC)C(=O)N[C@@H](CO)C(=O)N[C@@H](CCSC)C(=O)N[C@@H](CO)C(=O)N[C@@H](CCSC)C(=O)N[C@H](C(=O)N[C@@H](CC(C)C)C(=O)O)[C@@H](C)CC)[C@@H](C)O)[C@@H](C)O [E465–479] |  |  | IC50 [2, 4]: < 1 µM
CSCC[C@H](NC(=O)[C@H](CC(C)C)NC(=O)[C@H](CO)NC(=O)[C@H](C)NC(=O)[C@@H](NC(=O)[C@@H](NC(=O)[C@H](CCCNC(=N)N)NC(=O)[C@H](CCCCN)NC(=O)[C@@H](NC(=O)[C@H](CCCCN)NC(=O)[C@@H](N)CCCNC(=N)N)C(C)C)C(C)C)C(C)C)C(=O)N[C@@H](CCCNC(=N)N)C(=O)NCC(=O)N[C@@H](CC(C)C)C(=O)N[C@@H](CO)C(=O)O [C81–95] |  |  | Binding Assay IC50, I-A^d (capsid 15mers) [2]: high affinity
CSCC[C@H](NC(=O)[C@H](CC(C)C)NC(=O)[C@H](CO)NC(=O)[C@H](C)NC(=O)[C@@H](NC(=O)[C@@H](NC(=O)[C@H](CCCNC(=N)N)NC(=O)[C@H](CCCCN)NC(=O)[C@@H](NC(=O)[C@H](CCCCN)NC(=O)[C@H](CCCNC(=N)N)NC(=O)[C@H](CC(C)C)NC(=O)[C@@H](NC(=O)[C@H](C)NC(=O)[C@@H](N)CC(C)C)C(C)C)C(C)C)C(C)C)C(C)C)C(=O)O [C77–91] |  |  | Binding Assay IC50, I-A^d (capsid 15mers) [2]: high affinity
CC[C@H](C)[C@H](NC(=O)[C@@H](NC(=O)[C@H](CC(C)C)NC(=O)[C@H](C)NC(=O)[C@@H](N)[C@@H](C)O)[C@@H](C)O)C(=O)N[C@@H](C)C(=O)N[C@@H](Cc1ccc(O)cc1)C(=O)N[C@@H](CC(C)C)C(=O)N[C@H](C(=O)NCC(=O)N[C@@H](CO)C(=O)N[C@@H](CC(N)=O)C(=O)N[C@@H](CCSC)C(=O)N[C@H](C(=O)N[C@@H](CCC(N)=O)C(=O)O)[C@@H](C)O)C(C)C [M45–59] | > 45 µM | 0.102 µM | 
CSCC[C@H](NC(=O)[C@H](CCCNC(=N)N)NC(=O)CNC(=O)[C@@H](NC(=O)[C@H](CCSC)NC(=O)[C@H](Cc1c[nH]c2ccccc12)NC(=O)[C@H](CCCCN)NC(=O)[C@H](CCC(=O)O)NC(=O)[C@H](CCC(N)=O)NC(=O)[C@H](CCCNC(=N)N)NC(=O)[C@@H](NC(=O)[C@@H](N)CCCCN)[C@@H](C)O)[C@@H](C)O)C(=O)NCC(=O)N[C@@H](CCC(=O)O)C(=O)N[C@@H](CCCNC(=N)N)C(=O)O [M13–27] | > 45 µM | 1.9 µM | 
CC[C@H](C)[C@H](NC(=O)[C@H](CCCCN)NC(=O)[C@@H](NC(=O)[C@H](CCC(N)=O)NC(=O)[C@H](CC(=O)O)NC(=O)[C@@H](NC(=O)[C@@H](N)CCC(=O)O)C(C)C)[C@@H](C)O)C(=O)N[C@@H](CCC(N)=O)C(=O)N[C@@H](Cc1ccc(O)cc1)C(=O)N[C@H](C(=O)N[C@H](C(=O)N[C@@H](CCCNC(=N)N)C(=O)N[C@@H](C)C(=O)N[C@@H](CCC(N)=O)C(=O)N[C@@H](CC(C)C)C(=O)O)[C@@H](C)CC)C(C)C [E129–143] |  |  | IC50 [2, 4]: < 1 µM
CC[C@H](C)[C@H](NC(=O)[C@@H](NC(=O)[C@@H](NC(=O)[C@H](CCCNC(=N)N)NC(=O)[C@H](CCC(N)=O)NC(=O)[C@@H](NC(=O)[C@H](CCSC)NC(=O)[C@H](CC(N)=O)NC(=O)[C@H](CO)NC(=O)CNC(=O)[C@@H](N)C(C)C)[C@@H](C)O)C(C)C)C(C)C)C(=O)N[C@@H](C)C(=O)N[C@@H](CC(C)C)C(=O)N[C@@H](CC(C)C)C(=O)N[C@H](C(=O)O)C(C)C [M53–67] | 32.3 µM | 0.03 µM | 
CC[C@H](C)[C@H](NC(=O)[C@H](CCCCN)NC(=O)[C@@H](N)[C@@H](C)O)C(=O)N[C@@H](CCC(N)=O)C(=O)N[C@@H](Cc1ccc(O)cc1)C(=O)N[C@H](C(=O)N[C@H](C(=O)N[C@@H](CCCNC(=N)N)C(=O)N[C@@H](C)C(=O)N[C@@H](CCC(N)=O)C(=O)N[C@@H](CC(C)C)C(=O)N[C@@H](Cc1c[nH]cn1)C(=O)N[C@H](C(=O)NCC(=O)N[C@@H](C)C(=O)O)C(C)C)[C@@H](C)CC)C(C)C [E133–147] |  |  | IC50 [2, 4]: < 1 µM
CC[C@H](C)[C@H](NC(=O)[C@@H](NC(=O)[C@H](C)NC(=O)[C@H](C)NC(=O)[C@H](Cc1c[nH]cn1)NC(=O)[C@@H]1CCCN1)[C@@H](C)O)C(=O)N[C@@H](CCCNC(=N)N)C(=O)N[C@H](C(=O)N[C@@H](CC(C)C)C(=O)N[C@@H](C)C(=O)N[C@@H](CC(C)C)C(=O)NCC(=O)N[C@@H](CC(N)=O)C(=O)N[C@@H](CCC(N)=O)C(=O)N[C@@H](CCC(=O)O)C(=O)O)C(C)C [E237–251] |  |  | IC50 [2, 4]: < 1 µM
